According to patent US20050020565A1, “CCK-1 receptor modulators” (priority 2003, published 2005):

With `CON(C)C(=O)c1ccc(Cl)c(Cl)c1` [Example 511, 3,4-Dichloro-N-methoxy-N-methyl-benzamide] the melting point was 39.5 to 43.2 °C.
For `COc1ccc(-n2nc(C[C@H](C(=O)[O-])c3cccc(C)c3)cc2-c2ccc(Cl)c(Cl)c2)cc1.[Na+]` (stereo in doubt) [Example 505], the melting point was 280 to 285 °C.
With `COc1ccc(-n2nc(C[C@H](C(=O)[O-])c3cccc(C)c3)cc2-c2ccc(Cl)c(Cl)c2)cc1.[Na+]` (stereo in doubt) [Example 1] the melting point was 295.5 to 297.5 °C.
